Data: patent US20080139480A1, “Combination Of (A) N--4-(3- Pyridyl)-2-Pyrimidine-Amine And (B) At Least One Hypusination Inhibitor And The UseThereof” (priority 2003, published 2008)
“Also recorded” adds a separate entry of the source.

Columns and labels:
Format in all cases: cell-based
[1] = test system: Bcr-Abl positive K562 cells; test: MTT assay, growth inhibition / cellular cytotoxicity; details: 24 h, ciclopirox 0 to 81 μM
Protocol: (§1) K562 cells were obtained from DSMZ (Bielefeld, Germany). HL-60 lines were kindly provided by Dr. Bühring (Tübingen, Germany). Both cell lines are cultured in RPMI 1640 medium (Gibco-BRL, Invitrogen, UK) containing 10% fetal calf serum (FCS) (Biochrom KG, Berlin, Germany). The cells are incubated at 37° C. in a humidified atmosphere with 5% CO2 in air.
(§2) K652 and HL-60 cells are plated into 96-well flat-bottomed microtiter plates (Becton Dickinson, Heidelberg, Germany) at 1.5×10^4 cells/well in 150 μl of their respective media.
(§3) All analyses are performed in triplicates. After 24 and 48 hours, the viable cells in each well are assayed for their ability to transform 3-(4,5-dimethylthiazol-2-yl)-2,5-diphenyltetrazolium bromide (MTT) into a purple formazan (Twentyman et al., Br. J. Haematol. 71, 19-24 (1989), Arnould et al., Anticancer Res. 10, 145-154 (1990)). Therefore, 10 μl of a 10 mg/ml MTT solution is added in each well. After an incubation period of 2 hours at 37° C., the purple formazan is released by adding lysis buffer (15% sodium dodecyl sulfate [SDS] in DMF/H2O 1:1, pH 4.5) and shaking overnight in the dark. The absorbance of the samples is measured on an enzyme-linked immunosorbent assay (ELISA) plate reader (Dynatech MR7000) at 570 nm. […]

[2] = test system: Bcr-Abl-negative HL-60 cells; test: as above; details: ciclopirox 0 to 81 μM
Protocol: as §1, §2, §3

[3] = test system: Bcr-Abl-positive K562 cells; test: Apoptosis, flow cytometric evaluation of hypodiploid nuclei; details: ciclopirox 0 to 81 μM
Protocol: (§4) K562 and HL-60 (2×10^5 cells per well) are cultured in 24-well tissue plates under the conditions described above.
(§5) Briefly, nuclei are prepared by lysing cells in a hypotonic lysis buffer (1% sodium citrate, 0.1% Trition X-100, 50 μg propidium iodide per ml) and subsequently analyzed by flow cytometry. Nuclei to the left of the 2N peak containing hypodiploid DNA are considered as apoptotic. Flow cytometric analysis are performed on a FACScalibur (Becton Dickinson) using […] analysis software.
(§6) Apoptosis was also measured after 24 h by flow cytometric evaluation of hypodiploid nuclei as described in above Methods.

[4] = test system: Bcr-Abl negative HL-60 cells; test: as above; details: ciclopirox 0 to 81 μM
Protocol: as §4, §5, §6

SMILES: Cc1cc(C2CCCCC2)n(O)c(=O)c1 [ciclopirox, 6-cyclohexyl-1-hydroxy-4-methyl-2(1H)-pyridinone]
- growth inhibition / cell viability, single agent [1]: inhibits cell viability; also recorded: anti-proliferative effect was detected
- cell viability, single agent [2]: inhibits cell viability
- induction of apoptosis, single agent [3]: induces apoptosis
- induction of apoptosis, single agent [4]: induces apoptosis
